Assay results taken from US20250100962A1 (CITY OF HOPE, priority 2023, published 2025).

What was measured:
[1] = test system: C2C12 myoblasts; assay: EdU proliferation assay in C2C12 myoblasts; format: cell-based, mouse
Protocol: Cells were seeded at 0.2×10^5 concentration and treated with desired compounds and controls overnight. The seeding density was decided after trying several densities and choosing the one that after 24 h lead to visible, not clumping cells. 10 μM 5-ethynyl-2′-deoxyuridine (EdU) incorporation was performed during 4 h according to the kit protocol and detected by Click-iT Imaging Kit with Alexa 488 Fluorophore (Invitrogen). 1 μg/ml 4′,6′-diamidine-2′-phenylindole dihydrochloride (DAPI) was used to label for nuclei. Total number of EdU+ cells was counted from 8 representative fields at 20× and the rate of proliferation was calculated as percentage of EdU+/DAPI.

[2] = test system: mdx mice; assay: Direct intramuscular injection into Tibialis Anterior muscle of mdx mice; format: in vivo, mouse; conditions: for Evans Blue Dye (EBD) positive area (muscle damage): 150 ul of 2 uM daily for 3 days; for amount of satellite cells / satellite cell proliferation (EdU+/Pax7+ within Pax7+ pool): 150 μl of 2 μM daily for three days; for transcript levels of clock regulators and myogenic factors / expression of pro-inflammatory cytokines TNF-α, IL-6 and iNOS: RT-qPCR; for transcript levels of clock regulators and myogenic factors: mdx muscle; for expression of pro-inflammatory cytokines TNF-α, IL-6 and iNOS: mdx TA muscle, 3 daily doses; for reduction of creatine kinase (CK) levels, ex vivo TA explants: media of TA explant cultured 24 hours; for myofiber size distribution (cross section area) / Pax7 and CyclinD1 / new myofiber formation (eMyHC staining) / protein levels of clock regulators Bmal1, CLOCK, Rev-erbα / protein levels of myogenic factors: three daily doses; for Pax7 and CyclinD1 / new myofiber formation (eMyHC staining) / protein levels of clock regulators Bmal1, CLOCK, Rev-erbα / protein levels of myogenic factors: 50 μl of 2 μM
Source text: FIGS. 17A-17C. In vivo effect of chlorhexidine on inducing regenerative repair of mdx dystrophic muscle. Based on the effects of CHX on promoting myogenic differentiation, we postulated that it may enhance myogenesis in vivo to promote regenerative repair in dystrophic muscle. […] FIG. 17A: Initial preliminary data was obtained from mice injected with one or two injections (one day apart) of CHX dissolved in DMSO. […] FIG. 17B: Next, we further tested the in vivo effect of CHX by three doses using PBS solution to avoid potential membrane damage by DMSO. […] FIG. 17C: Lastly, we examined the effect of triple CHX injection on clock and myogenic factor proteins in individual and individual mdx muscle. […] Variability observed between individual mice could be due to the in vivo injection.
FIG. 18. In vivo effect of chlorhexidine on inducing nascent myofiber regeneration of mdx dystrophic muscle. To directly examine effect of CHX in vivo injection on dystrophic muscle repair, we performed immunofluorescence staining of embryonic myosin heavy chain (eMyHC) to identify nascent regenerated myofiber using frozen TA cross sections from mdx mice following triple injections. Laminin staining was used to delineate basal lamina of myofiber.
FIGS. 43A-43D. CHX and CM002 promote regenerative myogenesis in dystrophic mdx mice. Based on the effect of CHX and CM002 on promoting regenerative myogenesis, we next tested whether they exert protective effects in dystrophic disease conditions via local intramuscular delivery in the mdx mice, an established model for muscular dystrophy.
FIGS. 44A-44D. CM002 and CHX stimulate satellite cell proliferative expansion and myogenic gene induction in mdx mice. As Pax7 and CyclinD1 levels were increased by CM002 and CHX in mdx TA, we directly examined the proliferation of satellite cells via EdU labeling with co-staining for Pax7 to identify satellite cells.
FIGS. 45A-45D. CM002 and CHX protects against dystrophic muscle damage in mdx mice. Given that local delivery of CHX and CM002 stimulated new myofiber formation to promote regenerative repair, we next examined whether these effects lead to protection against dystrophic injury. […] Most importantly, using ex vivo TA explants, we determined creatine kinase secretion from treated TA muscles as a direct indicator to assess muscle injury.
FIGS. 46A-46D. CHX and CM002 ameliorate inflammatory milieu of muscular dystrophy. Chronic inflammation in dystrophic muscle, due to the persistent muscle damage with sustained degeneration and regeneration cycles, is a significant component of the pathogenic characteristics of muscular dystrophy contributing to muscle wasting. We thus determined potential ameliorative effects of CHX and CM002 on muscle inflammation in the mdx mice. […] To further test whether the reduction of inflammation in muscle could be due to direct modulation of macrophage pro-inflammatory activities, we determined CHX and CM002 effects in primary bone marrow-derived macrophages.

[3] = test system: mdx mice; assay: Maximal lethal dose by daily intraperitoneal injection in mdx mice; format: in vivo
Protocol: FIGS. 48A-48C. Systemic delivery of CM002 by intraperitoneal injection improves muscle strength in dystrophic mdx mice. Based on the PK analysis, we determined the maximal lethal dose in mdx mice via daily intraperitoneal injections using escalating doses. Starting doses were tested at 10, 20 and 30 mg/Kg/day, for 3 consecutive days in male or female mdx mice (FIG. 48A).

[4] = test system: cells; assay: Cellular toxicity observed across cell assays; format: cell-based
[5] = test system: C2C12 myoblasts; assay: Wound healing assay of C2C12 myoblasts; format: cell-based, mouse; conditions: 8 and 24 hours; 0.2 to 1 μM; vs DMSO
Protocol: Cells were seeded at 12×10^5 concentration on 6 well plates until 90% coverage and treated with compounds as indicated and controls while maintained 10% FBS 1% PSG DMEM. Scratch wounds were made with disposable cells scrapers and pictures were taken at hours 0, 4, 8, 24 and 48 following scratch. The results were measured as percentage coverage over original wound area based on image quantification. Area of wound closure was measured using Image J software.

[6] = test system: 3T3-L1 preadipocytes; assay: Adipogenic differentiation of 3T3-L1 preadipocytes; format: cell-based
Protocol: Cell culture and adipogenic differentiation. 3T3-L1 and C3H10T1/2 cell lines were obtained from ATCC, and maintained in DMEM with 10% fetal bovine serum supplemented with 1% Penicillin-Streptomycin-Glutamine, as previously described (Nam, Guo, Chatterjee et al., 2015; Liu, Xiong, Nam et al., 2020). 0.25% Trypsin was used for digestion and passaging of these cell lines. For adipogenic differentiation induction media (1.6 μM insulin, 1 μM dexamethasone, 0.5 mM IBMX, 0.5 uM Rosiglitazone) was used for 3 days followed by maintenance medium with insulin for 3 days for 3T3-L1 and 5 days for C3H10T1/2 cells, as previously described (Liu et al., 2020). Oil-red-O and Bodipy staining. These stainings for neutral lipids during adipogenic differentiation were performed as previously described (Nam et al., 2015). Briefly, for oil-red-O staining, cells were fixed using 10% formalin and incubated using 0.5% oil-red-O solution for 1 hour. Bodipy 493/503 was used at 1 mg/L together with DAPI for 15 minutes, following 4% paraformaldehyde fixation and permeabilization with 0.2% triton-X100. Immunoblot analysis. Total protein was extracted using lysis buffer containing 3% NaCl, 5% Tris-HCl, 10% Glycerol, 0.5% Triton X-10 in MilliQ water with protease inhibitor cocktail. 20-40 μg of total protein was resolved on 10% SDS-PAGE gels followed by immunoblotting on PVDF membranes (Bio-rad). […]

| Compound | Evans Blue Dye (EBD) positive area (muscle damage) [2] | amount of satellite cells [2] | satellite cell proliferation (EdU+/Pax7+ within Pax7+ pool) [2] | transcript levels of clock regulators and myogenic factors [2] | expression of pro-inflammatory cytokines TNF-α, IL-6 and iNOS [2] | reduction of creatine kinase (CK) levels, ex vivo TA explants [2] | myofiber size distribution (cross section area) [2] | Pax7 and CyclinD1 [2] | new myofiber formation (eMyHC staining) [2] | protein levels of clock regulators Bmal1, CLOCK, Rev-erbα [2] | protein levels of myogenic factors [2] | further results |
| --- | --- | --- | --- | --- | --- | --- | --- | --- | --- | --- | --- | --- |
| CCCCCC/C=N/C(=N)NC(=N)Nc1ccc(Cl)cc1 [CM002] | significantly reduced the areas stained positive for EBD | not significantly altered | sufficient to stimulate satellite cells proliferative expansion in dystrophic muscle to a similar degree | corresponding increase of their transcript levels | consistent reduction of expression of the pro-inflammatory cytokines examined | ~35% | striking left shift toward smaller myofibers | also induced | increased new myofiber formation | significantly elevated with stronger effect by CM002 | elevated protein levels of myogenic factors | proliferation (EdU incorporation) ([1]; 4 hours, 0.5 and 1 μM): significantly increased proliferation of C2C12 myoblasts; lethality at 20 mg/kg ([3]; IP injection): young adult mice at 14 weeks of age were succumbed to death, while older mice over 6 months of age survived; lethality at 30 mg/kg ([3]; IP injection): most mice injected at 30 mg/kg deceased; lethal dose ([3]; intraperitoneal, 3 consecutive days): over 20 mg/kg/day; tolerability at 10 mg/kg ([3]; male mice of 10-14 weeks, IP): tolerated 10 mg/kg well without any lethality; viability of cells at 1 μM [4]: maintained |
| [H]/N=C(\N/C(=N/[H])NCCCCCCNC(=N)NC(=N)Nc1ccc(Cl)cc1)Nc1ccc(Cl)cc1 [CHX, chlorhexidine] | significantly reduced the areas stained positive for EBD | not significantly altered | sufficient to stimulate satellite cells proliferative expansion in dystrophic muscle to a similar degree | corresponding increase of their transcript levels | consistent reduction of expression of the pro-inflammatory cytokines examined | approximately 50% | striking left shift toward smaller myofibers | also induced | increased new myofiber formation | significantly elevated | elevated protein levels of myogenic factors | increase of proliferation (EdU incorporation) ([1]; both concentrations tested, 24 hours): ~40%; wound area closure (migration) [5]: significantly increased; protein expression of clock regulators (CLOCK, Rev-erbα) and myogenic factors (Myf5, Myogenin) ([2]; one or two injections, 50 μl of 2 μM in DMSO): stronger inductions by two doses; Pax7 protein ([2]; three doses in PBS, pooled samples): strongly induced; myogenic factors and Bmal1 protein in individual mdx muscle ([2]; triple injection, n=3): two of three mice injected with CHX demonstrated marked inductions of myogenic factors together with up-regulation of Bmal1 protein; eMyHC staining (nascent regenerated myofiber) ([2]; triple injections, vs PBS): robust eMyHC indicative of newly-regenerated myofibers; formation of lipid-laden mature adipocyte ([6]; day 6, oil-red-O, Bodipy): sufficient to inhibit the formation of lipid-laden mature adipocyte in a dose-dependent manner; C/EBPα and PPARγ levels ([6]; differentiation day 6): only moderate tendency of lowering of C/EBPα and PPARγ levels |
